In BigSolDB 2.1:

FC(F)(F)c1cccnc1Cl
solubility (mole fraction)
Details | 263.15 K | 268.15 K | 273.15 K | 278.15 K | 283.15 K | 288.15 K | 293.15 K | 298.15 K | 303.15 K
in ethanol | 0.0807 | 0.112 | 0.141 | 0.186 | 0.262 | 0.363 | 0.476 | 0.621 | 0.831
in ethyl acetate | 0.306 | 0.35 | 0.399 | 0.455 | 0.508 | 0.583 | 0.652 | 0.739 | 0.824
in n-butanol | 0.0947 | 0.118 | 0.14 | 0.183 | 0.229 | 0.284 | 0.345 | 0.421 | 0.51
